The values below come from patent publication US20010044404A1, “Cleaning process and composition” (3M Innovative Properties Company, priority 1995, published 2001).

The nature of data set [1]: Mineral oil removal from aluminum coupon, sonication in solvent. To be noted: sonicated 1 minute. The protocol: In the following Examples and Comparative Examples, the cleaning ability of the alkoxy-substituted perfluorocompounds used in the cleaning process of the invention was further evaluated. A 1.28 cm×1.28 cm×0.225 cm wire-wrapped, aluminum coupon was coated with white heavy mineral oil (available from Aldrich Chemical) by immersing the coupon in an oil-filled beaker. The initial amount of the oil on the coupon was determined by weighing it on an analytical balance to the nearest 0.1 mg. The coupon was immersed in a container of solvent and sonicated for 1 minute at the indicated temperature (see Table 3 below for the solvents and temperatures used). The coupon was then weighed again, and the results were recorded in Table 3 as percent oil removal.

Data set [2] is described as follows: Rinse agent in co-solvent cleaning of solder flux. To be noted: solvating agent 1 minute at about 55° C., then 30 seconds in boiling solvent. The protocol: The ability of alkoxy-substituted perfluorocompounds to function as a rinse agent in a co-solvent cleaning process was evaluated. The above-described aluminum coupon was coated with solder flux (available from Alpha Metals as Alpha 611 rosin, mildly activated flux) by immersing the coupon into a flux-filled beaker. The flux-coated coupon was then dried using a forced air convection drier. The initial amount of the flux on the coupon was determined by weighing it on an analytical balance to the nearest 0.1 mg. The coupon was immersed in a container of a mixed solvating agent comprising approximately 50% methyl decanoate and 50% dipropylene glycol di-n-butyl ether and was sonicated for 1 minute at approximately 55° C. The coupon was then immersed for 30 seconds into alkoxy-substituted perfluorocompound which had been heated to its boiling point. The coupon was weighed again, and the results were recorded in Table 5 below as percent oil removed from the coupon.

Data set [3] can be described thus: Stability in the presence of acid (96% sulfuric acid, GLC). In kind it is physicochemical. To be noted: neat ether; sulfuric acid as in Stability in the Presence of Acid section. The protocol:
To assess hydrolytic stability under acidic conditions, C4F9OCH3 (15 g, 0.06 mole) was combined with sulfuric acid (10 g of 96% by weight, 0.097 mole) in a 50 mL flask containing a stir bar and fitted with a reflux condenser. The resulting mixture was stirred for 16 hours at room temperature, and then the resulting upper fluorochemical phase was separated from the resulting lower sulfuric acid phase. […] Chem. 49, 4007 (1984), which states that “[f]luorine atoms attached to carbon which also bears an alkyl ether group are known to be labile to electrophilic reagents. They are readily hydrolyzed in concentrated sulfuric acid, thus providing a route to some esters of fluoroacids.”

Data set [4] can be described thus: Open cup flash point ASTM D1310-86. In kind it is physicochemical. The protocol:
(§1) Various properties were measured for C4F9OCH3, CHClFCF2OCH3, and blends of each ether compound with cosolvent, trans-1,2-dichloroethylene (hereinafter, t-DCE) or n-butyl bromide, at various weight ratios.

Data set [5] in a line: Closed cup flash point ASTM D3278-96. In kind it is physicochemical. The protocol: as §1
Data set [6] is described as follows: Solvency properties: largest normal hydrocarbon alkane soluble at 50 percent by volume.
Method: A number of potential solvents were tested for their ability to dissolve hydrocarbons of increasing molecular weight according to the procedure described in U.S. Pat. No. 5,275,669 (Van Der Puy et al.), the description of which is incorporated herein by reference. The data shown in Table 1 were obtained by determining the largest normal hydrocarbon alkane which was soluble in a particular solvent at a level of 50 percent by volume. The numbers in the Table correspond with the carbon number of the largest alkane, e.g., “8” refers to octane. Measurements were made from room temperature up to the boiling point of the solvent. For comparative purposes, hydrofluorocarbons (HFCs) and perfluorocarbons (PFCs) were also tested using this method.
Using essentially the above-described method, the solvency properties of other alkoxy-substituted perfluorocompounds were tested at room temperature.
The nature of data set [7]: Perfluoropolyether oil removal in solvent vapor. To be noted: Brayco 815Z; vapor over boiling liquid, 60 seconds. As for the experimental part: The above-described aluminum coupon was dipped into Brayco 815Z perfluoropolyether oil (available from Castrol Inc., molecular weight of about 10,000) and then immersed in alkoxy-substituted perfluorocompound vapor (over the boiling liquid) for 60 seconds. The percent oil removal was determined in the above-described manner.

Data set [8] is described as follows: Paraffinic oil removal: solvating agent, then rinse in boiling solvent. To be noted: methyl caproate/dipropylene glycol di-n-butyl ether 30 seconds, boiling rinse 30 seconds. As for the experimental part:
The above-described test coupon was dipped into a paraffinic oil comprising a mixture of linear and branched hydrocarbons (DuoSeal Pump Oil, available from Sargent Welch), was immersed in mixed solvating agent comprising approximately 50% methyl caproate and 50% dipropylene glycol di-n-butyl ether for 30 seconds, and was then rinsed in boiling alkoxy-substituted perfluorocompound for 30 seconds. The percent oil removal was determined in the above-described manner.

Data set [9] is described as follows: Pump oil removal with boiling mixed terpenes/perfluorocompound mixture. To be noted: boiling mixture 40 volume % mixed terpenes, 60 volume % fluorinated component. As for the experimental part:
The above-described test coupon was dipped into DuoSeal Pump Oil (available from Sargent-Welch), was immersed in a boiling mixture of 40 volume % of a solvating agent comprising mixed terpenes having a boiling range of 243-274° C. and 60 volume % of alkoxy-substituted perfluorocompound (a cleaning composition of the invention), was cooled for 60 seconds, and was then immersed in mixture vapor for 30 seconds. The percent oil removal was determined in the above-described manner.

A short description of data set [10]: Pump oil removal with n-C6H14/perfluorocompound mixture at room temperature, ultrasonic. To be noted: 40 volume % n-C6H14, 60 volume % fluorinated component, 60 seconds. As for the experimental part: The above-described test coupon was dipped into DuoSeal Pump Oil (available from Sargent-Welch) and was then immersed in a mixture of 40 volume % n-C6H14 and 60 volume % alkoxy-substituted perfluorocompound (a cleaning composition of the invention) for 60 seconds at room temperature with ultrasonic agitation. The percent oil removal was determined in the above-described manner.

Data set [11] is described as follows: Pump oil removal in vapor of boiling n-C6H14/perfluorocompound mixture. To be noted: vapor of boiling 40 volume % n-C6H14, 60 volume % fluorinated component; 60 seconds. The protocol: The above-described test coupon was dipped into DuoSeal Pump Oil (available from Sargent-Welch) and was then immersed in the vapor of a boiling mixture of 40 volume % n-C6H14 and 60 volume % alkoxy-substituted perfluorocompound (a cleaning composition of the invention), for 60 seconds. The percent oil removal was determined in the above-described manner.

Data set [12] in a line: Stability in the presence of base: aqueous NaOAc, fluoride ion measurement. In kind it is physicochemical. To be noted: 10 g with 10 g 0.1M NaOAc, 110° C., 16 hours. The protocol: To assess hydrolytic stability, a ten gram sample of alkoxy-substituted perfluorocompound was combined with 10 g of 0.1M NaOAc and sealed in a 2.54 cm (internal diameter) by 9.84 cm Monel™ 400 alloy (66% nickel, 31.5% copper, and 1.2% iron and several minor components) tube (available from Paar Instrument Co. of Moline, Ill. as Part Number 4713cm). The tube was heated at 110° C. in a forced air convection oven for 16 hours. After cooling to room temperature, a 1 mL sample of the tube contents was diluted with 1 mL of total ionic strength adjustment buffer (TISAB, available from Orion Research, Inc., a mixture of 1,2-cyclohexylene dinitrilotetraacetic acid, deionized water, sodium acetate, sodium chloride, and acetic acid). The concentration of fluoride ion (resulting from any reaction of the perfluorocompound with the aqueous NaOAc) was measured using an Orion Model 720A Coulombmeter with a F-specific electrode which had been previously calibrated using 0.5 and 500 ppm F^− solutions. Based on the measured fluoride ion concentration, the rate at which HF had been generated by reaction of the aqueous NaOAc with the perfluorocompound was calculated.

The nature of data set [13]: Flash point testing ASTM D3278-89. In kind it is physicochemical. The protocol: The alkoxy-substituted perfluorocompounds C4F9OCH3, C4F9OC2H5, and c-C6F11OCH3 were tested for flash point by the standard method defined by ASTM D3278-89.
Data set [14] is described as follows: Fluorinated oil removal from aluminum coupon. To be noted: Krytox 157FSM, room temperature. As for the experimental part:
Using essentially the same procedure as that described in Examples 8-10, the ability of the alkoxy-substituted perfluorocompounds to remove a fluorinated oil was evaluated. As in the previous Examples, a coupon was immersed in Krytox™ 157FSM perfluoropolyether oil having carboxylic acid end groups (available from DuPont), and the percent oil remaining after immersion in the solvent (at room temperature) was determined.

Data set [15] in a line: Ability to dissolve halogenated oils (miscibility). In kind it is physicochemical. Particulars: room temperature. As for the experimental part:
The ability of alkoxy-substituted perfluorocompounds to dissolve several halogenated oils was determined by adding a measured amount of oil to alkoxy-substituted perfluorocompound until the resulting mixture became turbid or phase-split. […] The results (shown in Table 12) indicate that alkoxy-substituted perfluorocompounds have very high ability to dissolve halogenated oils. Thus, the perfluorocompounds can be used as carrier solvents for halogenated oils in the deposition of coatings of such oils on substrate surfaces.

Setting [16] is: 20 weight % ether, 80 % n-butyl bromide.
Where [17] appears, read: 30 weight % ether, 70 % n-butyl bromide.
[18] abbreviates: 50 weight % ether, 50 % n-butyl bromide.
The mark [19] stands for this setting: 80 weight % ether, 20 % n-butyl bromide.

For `FC(F)(Cl)C(F)(Cl)Cl` [CF2ClCFCl2, reference compound], the percent oil removal was 98.9% in data set [1] (23 ° C.) and 98.7% in [1] (50 ° C.).
Consider `FC(F)C(F)(F)C(F)(F)C(F)(F)C(F)(F)C(F)(F)F` [Example C6F13H, C6F13H, reference compound], for which the percent oil removal in [1] (23 ° C.) is 71.7%; in data set [1] (50 ° C.), 86.8%. In addition, in data set [2], the “% Removed” value is on record as 91.2%.
Take `COC(F)(F)C(F)Cl` (stereo not shown) [CHClFCF2OCH3, 2-chloro-1,1,2-trifluoroethyl methyl ether, reference compound]: in data set [3], the “Stability in Presence of Acid: conversion to ester” value came out at 100%. In addition, the “Open Cup Flash Point (ASTM D1310-86)” value is 80 (27) ° F. (° C.) in data set [4] (20 weight % ether, 80 % t-DCE); 80 (27) ° F. (° C.) in data set [4] (50 weight % ether, 50 % t-DCE); 85 (29) ° F. (° C.) in data set [4] (80 weight % ether, 20 % t-DCE); 76 (24) ° F. (° C.) in data set [4] (100 weight % ether, 0 % t-DCE). Moreover, the “Closed Cup Flash Point (ASTM D3278-96)” value in data set [5] (setting [16]) was 50 (7) ° F. (° C.); in data set [5] (setting [17]), 45 (10) ° F. (° C.); in data set [5] (setting [18]), 45 (7) ° F. (° C.); in data set [5] (setting [19]) it was 50 (10) ° F. (° C.); in [5] (100 weight % ether, 0 % n-butyl bromide, raised to 140° F. (60° C.)), 45 (7) ° F. (° C.). The “Largest Carbon Number of Longest Hydrocarbon Alkane to Dissolve” value in data set [6] (setting [16]) is listed as 21; in data set [6] (20 weight % ether, 80 % t-DCE), 27; in [6] (setting [17]) it was 21; in [6] (setting [18]), 20; in data set [6] (50 weight % ether, 50 % t-DCE) it was 21; in data set [6] (setting [19]) it was 19. Also, the “Largest Carbon Number of Longest Hydrocarbon Alkane to Dissolve” value in [6] (80 weight % ether, 20 % t-DCE) came out at 19; in data set [6] (100 weight % ether, 0 % n-butyl bromide), 18; in data set [6] (100 weight % ether, 0 % t-DCE), 18.
On to `FC(F)(F)C(F)(F)C(F)(F)C(F)(F)C(F)(F)C(F)(F)F` [Example C6F14, C6F14, reference compound], for which the figures for the percent oil removal in data set [1] (23 ° C.) and in data set [1] (50 ° C.) were 54.9% and 67.6%, respectively. Moreover, the “% Removed” value in [2] came to 51.9%. For the same compound, the “Percent Soil Removed” value in data set [7] came out at 92.9%; in data set [8], 89.2%; in data set [9], 75.7%; in [10] it was 88.5%; in [11] it was 73.8%.
In the case of `COC1(F)C(F)(F)C(F)(F)C(F)(F)C(F)(F)C1(F)F` [c-C6F11OCH3], in data set [12], the “HF Generation Rate” value came out at 0.33 µg/g/h. Also, in [13], the Flash point result is on record as “no flash point”. The percent oil removal in [1] (23 ° C.) came out at 74.4%; in [1] (50 ° C.), 96.5%; in data set [1] (60 ° C.), 99.8%. In addition, the “% Removed” value in data set [14] was determined as 96.5%; in [2], 100.0%. Also, the Miscibility with solute result in [15] (Brayco 815Z Perfluoropolyether (MW about 10,000)), in data set [15] (Chlorotrifluoroethylene Fluid (Inland 41 Vacuum Pump Oil)) and in data set [15] (Fomblin AM-2001 Functionalized Perfluoropolyether) was “Miscible (greater than or equal to 50 percent by volume solubility at room temperature)” in each case.
Turning to `FC(C(F)C(F)(F)C(F)(F)F)C(F)(F)F` (stereo not shown) [reference compound], in data set [12], the “HF Generation Rate” value amounted to 42.9 µg/g/h.
